Read-outs that look alike come from different tables or passages of the source.
Tests used:
WT mice = assay: Hot plate assay; assay type: in vivo, mouse; details: 0.3 mg/kg ip each, 55°C hot plate, p < 0.05
Experimental: Mice were again habituated to the experimental room for ≥2 h prior to testing. […] This apparatus is a heated metal plate, maintained at 55°C, enclosed by a clear acrylic plastic cylinder (∼10 cm in diameter), within which the mouse is free to move. […] If the mouse urinates during the assay, it is immediately removed from the hot plate. The time that the mouse remains on the hot plate prior to showing signs of discomfort is recorded. Doses were administered using a Latin-square crossover design. A day without testing occurred between each test.

Muscarinic, M1 (hr) = assay: NovaScreen competition binding; set-up: species or system human; details: 1 µM
Adenosine, A1 = test system: T1, Adenosine, A1; assay: NovaScreen competition binding; details: 1 µM
T1 construct: PerkinElmer – Caliper Life Sciences (NovaScreen service)

[1] = test system: T2, Leukotriene, LTD4 (CysLT1); assay: NovaScreen competition binding; details: 1 µM
T2 construct: PerkinElmer – Caliper Life Sciences (NovaScreen service)

[2] = test system: Potassium Channel, Ca2+ Act., VI; assay: NovaScreen competition binding; details: 1 µM
Histamine, H3 = assay: NovaScreen competition binding; details: 1 µM
Adrenergic, Alpha 2C (h) = test system: T3, Adrenergic, Alpha 2C (h); assay: NovaScreen competition binding; set-up: species or system human; details: 1 µM
T3 construct: PerkinElmer – Caliper Life Sciences (NovaScreen service)

Serotonin, 5HT1A (h) = assay: NovaScreen competition binding; set-up: species or system human; details: 1 µM
Serotonin, 5HT4 = assay: NovaScreen competition binding; details: 1 µM
[3] = biological target: T4, High-sensitivity α4(2)β2(3) nAChRs (Mus musculus, UniProt O70174+Q9ERK7); assay: 86Rb+ efflux from thalamic and cortical synaptosomes, DhβE-sensitive component; assay type: biochemical
T4 construct: from tissue; host or cells: WT mouse thalamic and cortical synaptosomes
T4 sequence (Q9ERK7 26-501): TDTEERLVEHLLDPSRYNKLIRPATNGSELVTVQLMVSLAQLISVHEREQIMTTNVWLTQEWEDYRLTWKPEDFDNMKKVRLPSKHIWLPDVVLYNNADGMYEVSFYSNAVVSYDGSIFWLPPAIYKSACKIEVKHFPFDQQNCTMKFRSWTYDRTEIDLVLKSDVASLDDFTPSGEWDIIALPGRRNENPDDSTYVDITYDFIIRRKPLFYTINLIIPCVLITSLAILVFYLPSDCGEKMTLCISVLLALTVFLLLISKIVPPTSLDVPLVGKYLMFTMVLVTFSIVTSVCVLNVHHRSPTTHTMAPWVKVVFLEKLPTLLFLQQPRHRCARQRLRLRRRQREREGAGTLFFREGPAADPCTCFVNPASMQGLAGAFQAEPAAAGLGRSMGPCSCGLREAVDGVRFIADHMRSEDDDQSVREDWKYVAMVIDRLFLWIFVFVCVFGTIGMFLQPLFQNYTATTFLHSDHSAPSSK
T4 sequence (O70174 31-629): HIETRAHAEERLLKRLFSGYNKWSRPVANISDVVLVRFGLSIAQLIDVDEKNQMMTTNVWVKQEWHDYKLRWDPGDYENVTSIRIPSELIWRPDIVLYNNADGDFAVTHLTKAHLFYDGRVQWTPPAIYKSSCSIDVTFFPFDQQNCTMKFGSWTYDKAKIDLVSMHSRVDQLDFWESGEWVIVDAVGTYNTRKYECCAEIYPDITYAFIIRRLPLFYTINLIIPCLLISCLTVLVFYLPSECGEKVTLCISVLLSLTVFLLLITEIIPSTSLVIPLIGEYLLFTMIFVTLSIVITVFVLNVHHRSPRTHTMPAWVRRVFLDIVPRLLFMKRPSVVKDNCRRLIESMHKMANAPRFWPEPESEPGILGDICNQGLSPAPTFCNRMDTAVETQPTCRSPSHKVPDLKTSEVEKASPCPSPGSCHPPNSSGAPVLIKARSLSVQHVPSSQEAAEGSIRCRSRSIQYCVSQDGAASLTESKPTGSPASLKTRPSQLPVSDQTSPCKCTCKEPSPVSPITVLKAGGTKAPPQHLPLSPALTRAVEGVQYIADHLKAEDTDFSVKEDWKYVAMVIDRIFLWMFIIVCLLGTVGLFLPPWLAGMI
Experimental: (§1) Regions of interest were dissected from fresh mouse brains and homogenized in ice-cold isotonic sucrose (0.32 M), buffered with HEPES (5 mM, pH 7.5). The suspension was centrifuged at 12,000 × g for 20 min.

α3β4* nAChRs = biological target: T5, α3β4* nAChRs (Mus musculus, UniProt Q8R493+Q8R4G9); assay: [3H]ACh release from interpeduncular nucleus synaptosomes; assay type: biochemical; details: IPN synaptosomes
T5 construct: from tissue
T5 sequence (Q8R4G9 26-499): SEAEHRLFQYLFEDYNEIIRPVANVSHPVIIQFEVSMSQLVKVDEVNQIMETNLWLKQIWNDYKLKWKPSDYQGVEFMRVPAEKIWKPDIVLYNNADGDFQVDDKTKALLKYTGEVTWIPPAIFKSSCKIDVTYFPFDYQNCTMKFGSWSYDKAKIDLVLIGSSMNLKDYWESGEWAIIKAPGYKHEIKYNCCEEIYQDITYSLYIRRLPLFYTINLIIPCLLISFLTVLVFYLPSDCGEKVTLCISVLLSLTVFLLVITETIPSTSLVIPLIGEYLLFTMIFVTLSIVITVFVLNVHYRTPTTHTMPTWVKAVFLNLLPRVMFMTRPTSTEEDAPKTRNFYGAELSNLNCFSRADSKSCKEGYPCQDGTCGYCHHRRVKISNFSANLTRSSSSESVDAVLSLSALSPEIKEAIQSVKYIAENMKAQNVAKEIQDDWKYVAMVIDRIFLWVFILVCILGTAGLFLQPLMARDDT
T5 sequence (Q8R493 21-495): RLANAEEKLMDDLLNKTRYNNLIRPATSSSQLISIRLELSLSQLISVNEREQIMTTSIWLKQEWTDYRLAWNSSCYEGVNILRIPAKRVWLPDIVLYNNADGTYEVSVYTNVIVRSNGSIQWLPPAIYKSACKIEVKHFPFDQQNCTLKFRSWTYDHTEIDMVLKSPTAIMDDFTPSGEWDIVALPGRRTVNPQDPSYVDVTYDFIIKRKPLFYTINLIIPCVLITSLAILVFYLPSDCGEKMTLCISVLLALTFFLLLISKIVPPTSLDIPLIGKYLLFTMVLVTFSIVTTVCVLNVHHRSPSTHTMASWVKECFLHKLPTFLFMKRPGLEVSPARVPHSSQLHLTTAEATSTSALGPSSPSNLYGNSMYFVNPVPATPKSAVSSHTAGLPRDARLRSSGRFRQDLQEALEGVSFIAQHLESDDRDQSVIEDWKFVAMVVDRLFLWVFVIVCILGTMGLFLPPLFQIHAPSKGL
Experimental: Regions of interest were dissected from fresh mouse brains and homogenized in ice-cold isotonic sucrose (0.32 M), buffered with HEPES (5 mM, pH 7.5). The suspension was centrifuged at 12,000 × g for 20 min. The pellet was re-suspended in the appropriate uptake buffer ([Grady et al., 2001]; [Salminen et al., 2004]; [Marks et al., 2006]) and used immediately.
Previously published methods for [^3H]ACh release from crude IPN synaptosomes were followed ([Grady et al., 2001]). Agonist-stimulated ^86Rb^+ efflux from synaptosomes was measured using previously described methods ([Marks et al., 1999], [2007]).

Dopamine Transporter = assay: NovaScreen competition binding; details: 1 µM
α4β2 (α5KO) nAChRs = biological target: T6, α4β2 (α5KO) nAChRs (Mus musculus, UniProt O70174+Q9ERK7); assay: 86Rb+ efflux from α5KO thalamic and cortical synaptosomes; assay type: biochemical
T6 construct: from tissue; host or cells: thalamic and cortical synaptosomes of α5KO mice
T6 sequence (O70174 31-629): as the sequence (O70174 31-629) above
T6 sequence (Q9ERK7 26-501): as the sequence (Q9ERK7 26-501) above
Experimental: as §1

[4] = Pharmacokinetics in mice, plasma and brain by LC-MS/MS; assay type: in vivo, mouse; details: for half-life / Tmax: both sexes, mouse, plasma; for Tmax: read-out: Time of maximum plasma concentration
Experimental: Pharmacokinetic experiments with TC299423 were performed by Absorption Systems LP (Exton, PA, United States). […] Blood samples were taken and the brains were harvested 5 min, 15 min, 30 min, 1 h, 3 h, and 6 h after drug administration. […] Blood and brain samples were obtained at the same time points as above. Untreated plasma and blood samples were collected from three mice in the same cohort as the study animals for pre-dose (time 0) samples. Blood samples were collected by cardiac puncture and stored in tubes containing sodium heparin before being processed. Plasma was prepared and frozen for analysis. Brains were harvested, rinsed, patted dry, weighed, and frozen.
Matched matrix was used for preparation of calibration standards. Dosing solutions were normalized in matched matrix and analyzed in triplicate in the same analytical batch as the incurred samples.

Serotonin, 5HT3 = test system: T7, Serotonin, 5HT3; assay: NovaScreen competition binding; set-up: species or system mouse; details: 1 µM
T7 construct: endogenous in cells; host or cells: N1E-115 (mouse neuroblastoma)
Description: Assays included the nicotinic drug [^3H]epibatidine binding to α-bungarotoxin-insensitive nAChRs, the 5-HT3 inhibitor [N-methyl-^3H]GR65630 to mouse receptors in N1E-115 cells, and human receptors expressed in a clonal cell line. Other assays included monoamine oxidase A, monoamine oxidase B, 5-HT transporter, norepinephrine transporter, and dopamine transporter, as well as other. G-protein-coupled receptors, ion channels, enzymes, and transporters.

Adrenergic, Alpha 2B = assay: NovaScreen competition binding; details: 1 µM
[5] = test system: Glycine, Strychnine-sensitive; assay: NovaScreen competition binding; details: 1 µM
[6] = test system: Glutamate, NMDA Agonist Site (Ionotropic); assay: NovaScreen competition binding; details: 1 µM
Adrenergic, Alpha 1B = test system: T8, Adrenergic, Alpha 1B; assay: NovaScreen competition binding; details: 1 µM
T8 construct: PerkinElmer – Caliper Life Sciences (NovaScreen service)

Adrenergic, Alpha 1A = test system: T9, Adrenergic, Alpha 1A; assay: NovaScreen competition binding; details: 1 µM
T9 construct: PerkinElmer – Caliper Life Sciences (NovaScreen service)

Muscarinic, M5 (h) = assay: NovaScreen competition binding; set-up: species or system human; details: 1 µM

**Q.** Which “Antinociceptive effect compared with varenicline” value (WT mice) does the source give for C1=C(/c2cncnc2)CCCNCC/1 [TC299423, (E)-5-(pyrimidin-5-yl)-1,2,3,4,7,8-hexahydroazocine] here?
**A.** The value was “significantly greater than that of varenicline”.

**Q.** What about the Hit (Muscarinic, M1 (hr)) of the same molecule?
**A.** Its Hit is “FALSE”.

**Q.** And the Inhibition (Muscarinic, M1 (hr); [3H]Scopolamine, N-Methyl)?
**A.** Its Inhibition is -11.73%.

**Q.** And the Hit (Adenosine, A1)?
**A.** The Hit was “FALSE”.

**Q.** And the Inhibition (Adenosine, A1; [3H]CPX)?
**A.** The Inhibition was 7.85%.

**Q.** What about the Hit [1] of the same molecule?
**A.** The Hit was “FALSE”.

**Q.** And the Inhibition ([1]; [3H]LTD4)?
**A.** The Inhibition was -8.26%.

**Q.** And the Hit [2]?
**A.** The Hit was “FALSE”.

**Q.** And the Inhibition ([2]; [125I]Apamin)?
**A.** The Inhibition was -2.57%.

**Q.** What about the Hit (Histamine, H3) of the same molecule?
**A.** Its Hit is “FALSE”.

**Q.** And the Inhibition (Histamine, H3; [3H]N-a-MeHistamine)?
**A.** Its Inhibition is 5.85%.

**Q.** And the Hit (Adrenergic, Alpha 2C (h))?
**A.** The Hit was “FALSE”.

**Q.** What about the Inhibition (Adrenergic, Alpha 2C (h); [3H]MK-912) of the same molecule?
**A.** Its Inhibition is 6.28%.

**Q.** What about the Hit (Serotonin, 5HT1A (h)) of the same molecule?
**A.** Its Hit is “FALSE”.

**Q.** And the Inhibition (Serotonin, 5HT1A (h); [3H]-8-OH-DPAT)?
**A.** The Inhibition was 17.60%.

**Q.** What about the Hit (Serotonin, 5HT4) of the same molecule?
**A.** Its Hit is “FALSE”.

**Q.** What about the Inhibition (Serotonin, 5HT4; [3H]GR 113808) of the same molecule?
**A.** Its Inhibition is -16.64%.

**Q.** And the “86Rb+ efflux Efficacy” value ([3]; Cortex)?
**A.** The value was 94 ± 7%.

**Q.** What about the EC50 ([3]; Cortex, read-out: 86Rb+ efflux EC50) of the same molecule?
**A.** The EC50 was 2 ± 2 µM.

**Q.** And the “86Rb+ efflux Efficacy” value ([3]; Thalamus)?
**A.** The value was 139 ± 14%.

**Q.** And the EC50 ([3]; Thalamus, read-out: 86Rb+ efflux EC50)?
**A.** The EC50 was 0.6 ± 0.1 µM.

**Q.** And the EC50 ([3]; thalamic and cortical synaptosomes, read-out: EC50 for the DhβE-sensitive α4β2* nAChRs)?
**A.** The EC50 was 0.6 to 2 µM.

**Q.** What about the EC50 (α3β4* nAChRs; read-out: Neurotransmitter release EC50 (converted)) of the same molecule?
**A.** The EC50 was 8 µM.

**Q.** What about the Emax (α3β4* nAChRs; relative to nicotine, read-out: Neurotransmitter release % Efficacy) of the same molecule?
**A.** The Emax was 100 ± 16%.

**Q.** And the Hit (Dopamine Transporter)?
**A.** The Hit was “FALSE”.

**Q.** What about the Inhibition (Dopamine Transporter; [3H]WIN 35,428) of the same molecule?
**A.** Its Inhibition is -5.87%.

**Q.** What about the “86Rb+ efflux Efficacy” value (α4β2 (α5KO) nAChRs; Cortex) of the same molecule?
**A.** The value was 169 ± 20%.

**Q.** What about the EC50 (α4β2 (α5KO) nAChRs; Cortex) of the same molecule?
**A.** Its EC50 is 2.4 ± 0.7 µM.

**Q.** And the “86Rb+ efflux Efficacy” value (α4β2 (α5KO) nAChRs; Thalamus)?
**A.** The value was 166 ± 32%.

**Q.** What about the EC50 (α4β2 (α5KO) nAChRs; Thalamus) of the same molecule?
**A.** The EC50 was 1.6 ± 0.5 µM.

**Q.** And the Maximum brain-tissue concentration ([4]; 0.3 mg/kg ip)?
**A.** Its Maximum brain-tissue concentration is 22 ± 0.43 ng/g.

**Q.** What about the Maximum plasma concentration ([4]; 0.3 mg/kg ip) of the same molecule?
**A.** The Maximum plasma concentration was 49 ± 18 ng/mL.

**Q.** And the “Time of maximum brain-tissue concentration” value ([4]; 0.3 mg/kg ip)?
**A.** Its value is 0.5 h.

**Q.** What about the Maximum brain-tissue concentration ([4]; 0.3 mg/kg ip, converted) of the same molecule?
**A.** The Maximum brain-tissue concentration was 0.12 µM.

**Q.** And the Maximum plasma concentration ([4]; 0.3 mg/kg ip, converted)?
**A.** The Maximum plasma concentration was 0.26 µM.

**Q.** And the Maximum brain-tissue concentration ([4]; 1 mg/kg oral)?
**A.** The Maximum brain-tissue concentration was 42 ± 17 ng/g.

**Q.** And the Maximum plasma concentration ([4]; 1 mg/kg oral)?
**A.** Its Maximum plasma concentration is 38 ± 10 ng/mL.

**Q.** What about the “Time of maximum brain-tissue concentration” value ([4]; 1 mg/kg oral) of the same molecule?
**A.** The value was 0.25 h.

**Q.** And the Maximum brain-tissue concentration ([4]; 1 mg/kg oral, converted)?
**A.** The Maximum brain-tissue concentration was 0.22 µM.

**Q.** And the Maximum plasma concentration ([4]; 1 mg/kg oral, converted)?
**A.** Its Maximum plasma concentration is 0.20 µM.

**Q.** What about the half-life ([4]; 0.3 mg/kg ip) of the same molecule?
**A.** The half-life was 10.2 min.

**Q.** And the Tmax ([4]; 0.3 mg/kg ip)?
**A.** Its Tmax is 4.8 min.

**Q.** What about the half-life ([4]; 1 mg/kg oral) of the same molecule?
**A.** Its half-life is 67.2 min.

**Q.** And the Tmax ([4]; 1 mg/kg oral)?
**A.** Its Tmax is 15 min.

**Q.** And the “Time remaining in the brain” value ([4]; following ip injection or oral administration)?
**A.** Its value is “at least 60 min”.

**Q.** And the Hit (Serotonin, 5HT3)?
**A.** Its Hit is “FALSE”.

**Q.** And the Inhibition (Serotonin, 5HT3; [3H]GR 65630)?
**A.** Its Inhibition is 7.50%.

**Q.** And the Hit (Adrenergic, Alpha 2B)?
**A.** Its Hit is “FALSE”.

**Q.** And the Inhibition (Adrenergic, Alpha 2B; [3H]MK-912)?
**A.** The Inhibition was -14.09%.

**Q.** What about the Hit [5] of the same molecule?
**A.** Its Hit is “FALSE”.

**Q.** What about the Inhibition ([5]; [3H]Strychnine) of the same molecule?
**A.** The Inhibition was -7.63%.

**Q.** What about the Hit [6] of the same molecule?
**A.** The Hit was “FALSE”.

**Q.** What about the Inhibition ([6]; [3H]CGP 39653) of the same molecule?
**A.** Its Inhibition is 5.51%.

**Q.** What about the Hit (Adrenergic, Alpha 1B) of the same molecule?
**A.** Its Hit is “FALSE”.

**Q.** What about the Inhibition (Adrenergic, Alpha 1B; [3H]-7-MeOxy-Prazosin) of the same molecule?
**A.** Its Inhibition is -8.31%.

**Q.** What about the Hit (Adrenergic, Alpha 1A) of the same molecule?
**A.** Its Hit is “FALSE”.

**Q.** What about the Inhibition (Adrenergic, Alpha 1A; [3H]-7-MeOxy-Prazosin) of the same molecule?
**A.** The Inhibition was -0.05%.

**Q.** What about the Hit (Muscarinic, M5 (h)) of the same molecule?
**A.** Its Hit is “FALSE”.

**Q.** What about the Inhibition (Muscarinic, M5 (h); [3H]Scopolamine, N-Methyl) of the same molecule?
**A.** The Inhibition was 2.24%.
